Data taken from patent publication US20190359989A1, “FUSION PROTEIN AND APPLICATIONS THEREOF” (CARSGEN THERAPEUTICS CO., LTD., priority 2016, published 2019).
Values belong to the molecule of their own block, whether it stands above or below them. Where a SMILES comes first, the peptide text is derived from it. [ ]: non-standard residue; d: D form. Dolaproine = CO[C@@H]([C@@H]1CCCN1)[C@@H](C)C(=O)O; Dil = CC[C@H](C)[C@H](NC)[C@@H](CC(=O)O)OC; NMeV = CN[C@H](C(=O)O)C(C)C

Assays:
[1] = tested on: FR806-positive T cells; experiment: CCK8 assay for killing FR806-expressing T cells; assay type: cell-based, human; conditions: CCK8, 72 h, 10-1000 nM
Description: Experimental group: T cells expressing eGFP-FR806 after sorted in Example 3 were plated in a 96-well plate at 3×10^4 cells per well in 100 ul of medium, 5 replicate wells per drug concentration, and then a blank group of medium was set. Control group: T cells that were not infected with the virus were taken and plated in a 96-well plate according to the operation of the experimental group. […] After 72 h, 10 ul of CCK8 reagent (Dojindo) was added to each well and incubated at 37° C. for 3 h, and the absorbance was measured at 450 nm by a microplate reader to calculate the cell viability.
According to the above procedure, the sorted T cells infected with eGFP-FR806 were taken and plated in a 96-well plate at 3×10^4 cells per well in 100 ul of culture medium, 5 replicate wells per drug concentration, and then a blank group of medium was set. The control group was uninfected T cells, which were plated in a 96-well plate by the same method. Six concentrations of free MMAFs of 1000 nM, 500 nM, 100 nM, 50 nM, 10 nM and 0 nM were added to T cells at specific concentrations to prepare six gradients (i.e., the aforementioned six concentrations). After 72 h, 10 ul of CCK8 reagent (Dojindo) was added to each well for 3 h at 37° C., and the absorbance was measured at 450 nm by a microplate reader to calculate the cell viability. […]

[2] = tested on: FR806-positive HEK293T; experiment: Cell killing experiment on EGFR+ HEK293T cells expressing FR806; assay type: cell-based
Description: Moreover, the applicant selected EGFR+ HEK293T cells expressing FR806, and subjected them to cell killing experiments.

[3] = tested on: FR806-negative HEK293T; experiment: Cell killing experiment on FR806-negative EGFR+ HEK293T cells; assay type: cell-based
[4] = biological target: T1, EGFR on Keratinocyte cells and HEK-293T cells (human, UniProt P00533 25-1210); experiment: FACS on Keratinocyte cells and HEK-293T cells expressing EGFR
T1 construct: whole, on cells; also called epidermal growth factor receptor

Molecule: CC[C@H](C)[C@@H]([C@@H](CC(=O)N1CCC[C@H]1[C@H](OC)[C@@H](C)C(=O)N[C@@H](Cc1ccccc1)C(=O)O)OC)N(C)C(=O)[C@@H](NC(=O)[C@@H](NC)C(C)C)C(C)C [Free MMAF, MMAF] (H-[NMeV]V[Dil][Dolaproine]F-OH)
killing levels to T cells expressing and not expressing FR806 [1]: comparable | killing of FR806-positive HEK293T [2]: killed | killing of FR806-negative HEK293T [3]: killed

binding result [4]: no binding
B1: CH12 antibody (antibody, human IgG1, kappa, V domains shown)
VH: DVQLQESGPGLVKPSQSLSLTCTVTAYSVTSDYAWNWIRQFPGNKLEWMGYISYSGTTRYNPSLKSRISITRDTSKNQFFLQLNSMTAEDTATYYCSRQGRGFPYWGQGTLVTVSA
VL: DILMTQSPSSMSVSLGDTVSITCHASQDINSNIGWLQQKPGKSFKGLIYHGTNLEDGVPSRFSGSGSGADYSLTISSLESEDFADYYCVQYAQFPWTFGGGTKLEIKR
notes: CH12 antibody as disclosed in CN 200810038848.8; detected with goat anti-human IgG
